# Reference: a melting point compilation (Tetko et al.; mined from patent text by program, amines drawn as free bases though some values may be those of a salt)
row,Compound,melting point [°C]
1,CN(CCCNC(=O)NCCSCc1csc(NC(=N)N)n1)CCC(c1ccccc1)c1ccccn1 (stereo not given),95 to 98
2,CCN(CC)C(=O)c1cn(-c2cccc(Cl)c2)cn1,105
3,COc1ccc(C(=O)c2ccc(OCc3nc(-c4ccccc4)oc3C)cc2)c(OCC(=O)O)c1,146 to 147
4,ClCSc1c(Cl)c(Cl)cc(Cl)c1Cl,81 to 82
5,Cc1ccc2cccc(OCc3c(C)ccc(N)c3C)c2n1,204 to 205
6,COC(=O)c1ccc(C(=O)N2CCN(c3ncccc3NCC(C)C)CC2)nc1,82 to 84
7,Cc1nc(-n2ccc(OCc3ccc(F)cc3)cc2=O)sc1C(=O)O,> 300
8,C=CCOc1ccccc1N(CC1CO1)S(C)(=O)=O (stereo not given),78
9,CCOC(=O)c1nnc2ccc(NC3=CC(=O)CC(C)(C)C3)cc2c1O,274
10,O=c1c2ccc(Cl)cc2[nH]c2c(=O)n(-c3ccc(F)cc3)nc(O)c12,390 to 392
11,Nc1c([N+](=O)[O-])c(C(F)(F)F)nn1-c1c(Cl)cc(C(F)(F)F)cc1Cl,214 to 215
12,CSc1ccc(Br)cc1C(=O)Cn1cccc1,138 to 139
13,CN(C)c1ccc(CN[C@@H](C(=O)O)[C@H](O)[C@H](Cc2ccccc2)NC(=O)OC(C)(C)C)cc1,202 to 204
14,CN(C)C=NS(=O)(=O)c1cc(CCNC(=O)C(F)(F)F)ccc1I,155 to 156
15,CC1(C)C(C)(C)C1(Cl)c1ccccn1,100 to 102
16,CN1CCN(C2=Nc3ccccc3N(C)c3cscc32)CC1,83 to 85
17,CCOc1ccc(S(=O)(=O)Cl)cc1C(=O)O,108 to 110
18,CCCCn1c(=O)c2c(nc(/C=C/c3cc(OC)c(OC)c(OC)c3)n2C)n(CCCC)c1=O,137
19,CCCCc1nc2cccc(C(=O)OC)c2n1Cc1ccc(-n2cccc2-c2nnn[nH]2)cc1,186 to 187
20,CC1=CC(O)C(OC(=O)c2ccccc2)C(C)(C)CC1OC(=O)c1ccccc1 (stereo not given),142 to 144
21,COC[C@H]1C[C@H]1c1ccccc1 (relative stereo),46 to 50
22,CCn1c(=O)n(Cc2ccccc2)c(=O)c2c(Cl)cc(Cl)cc21,78 to 82
23,Oc1nc(-c2ncccn2)nc(O)c1-c1cccs1,244 to 246
24,CC(C)(C)OC(=O)N1CCCC[C@@H]1[C@H](CO)c1ccc(Br)cc1,117 to 118
25,O=C(O)C1CCc2onc(-c3ccc(Cl)cc3)c2CC1 (stereo not given),144 to 145

row,Compound,melting point [°C]
1,COC(=O)C(NC(CO)c1ccccc1)C1CC2CCC(C1)N2 (stereo not given),124
2,CCOC=Nc1ccc2nnc(-c3ncc([N+](=O)[O-])n3C)n2n1,134 to 135
3,Nc1c(Cl)cc(C(O)CNCCCCCCOCCCCCCc2ccc3ccccc3n2)cc1Cl (stereo not given),62.3 to 64.7
4,Cc1c(C)n2nnnc2c2nc(C)n(CCNS(C)(=O)=O)c12,> 250
5,O=C(OCC(O)CO)c1cc(F)ccc1Nc1ccnc2cc(Cl)ccc12 (stereo not given),168
6,O=C(CCCC1CCN(Cc2ccccc2)CC1)c1ccc(N2CCCC2)cc1,115 to 116
7,CC1=CC(O)C(OC(=O)c2ccccc2)C(C)(C)CC1=O (stereo not given),99 to 100
8,Cc1ccccc1-c1c(C(C)n2cnc3c(N)ncnc32)oc2ccccc2c1=O (stereo not given),202 to 205
9,Oc1ccc(CSSCc2ccc(O)cc2)cc1,171
10,Cc1c(NC(=O)c2ccc(OC[C@H]3CCCO3)cc2)ccc2cc(CNCC(C)(C)C)cnc12,110 to 111
11,CCOc1ccc(-c2ccc3c(c2)C=C(C(=O)Nc2ccc(CN(C)C4CCOCC4)cc2)CCN3C=O)cc1F,193 to 196
12,O=C(COc1cc(-c2ccccc2F)nc2ccccc12)N1CCOCC1,145
13,c1nc(CSCCc2ccc3c(c2)OCO3)c[nH]1,81 to 83
14,Cc1c(C(=O)Nc2ccc(N3CCC(N4CCOCC4)CC3)c(C#N)c2)cnn1-c1ccc(F)c(Cl)c1,266
15,O=C1CCC(c2ccc(Cl)cc2)N1c1ccccc1 (stereo not given),82.5 to 83.5
16,CC(C)(C)C(=O)CN1C(=O)c2ccccc2C1=O,96 to 99
17,O=C(O)Cc1ccc(OCc2ccccc2)c(OCCc2ccccc2)c1,110 to 112
18,CC(=O)CC(C)(C)Cn1cnc2c(N)nc3ccccc3c21,214 to 216
19,O=C(CBr)CC(=O)Nc1cccc(C(F)(F)F)c1,66 to 68
20,Cc1ccc(S(=O)(=O)n2c(C3(O)C=CC(=O)c4ccccc43)cc3ccccc32)cc1 (stereo not given),110 to 112
21,COc1cccc2c1nnn2C1CCCCC1,118 to 120
22,OCCC#Cc1ccc2ccccc2n1,89 to 91
23,O=C1CCC(N2C(=O)c3ccc(CNC(=O)c4cc5ccccc5s4)cc3C2=O)C(=O)N1 (stereo not given),318 to 320
24,O=C(Cn1nc(-c2ccccc2O)nc1-c1ccccc1O)NCCO,208 to 211
25,CCOP(=O)(CCN(OCc1ccccc1)S(=O)(=O)c1ccc(C)cc1)OCC,78 to 80

row,Compound,melting point [°C]
1,Nc1nc2c(c(Nc3ccc(C(F)(F)F)cc3)n1)-c1ccccc1C2,229 to 231
2,CCCn1nc2c(N)nc3ccccc3c2c1CCNC(=O)CC,184 to 185
3,O=C(O)Cc1ccc(CCNC(=O)c2ccccc2)cc1,157 to 158
4,CN(c1ccccc1)c1cc(NCc2ccco2)c(C(=O)O)cc1S(N)(=O)=O,145
5,COC(=O)c1ccccc1C(=O)NNC(=S)Nc1ccccc1,140 to 142
6,CCCCCC1CC=C(c2ccc(Br)cc2)CC1 (stereo not given),67 to 68
7,COc1cc(C(=O)c2c(N)sc3c2CCN(Cc2ccccc2)C3)ccc1OC(C)C,113 to 114
8,O=C1c2c(Cl)cccc2-n2c1nc1ccccc1c2=O,294 to 296
9,CSCc1c(Cl)ccc(C(=O)c2cnoc2C2CC2)c1SC,79.9 to 80.5
10,CC(=O)NCCSc1ccnc(CSc2nc3ccccc3[nH]2)c1C,211 to 213
11,O=C(CCl)Nc1ccc2ncnc(Nc3cccc(I)c3)c2c1,> 300
12,O=c1ccoc(C(O)c2cccc(F)c2)c1OCc1ccccc1 (stereo not given),95 to 96
13,N#Cc1ccc(C(F)(F)F)cc1Sc1ccccc1,51
14,O=C1O[C@@H](CNC(=O)C(F)(F)F)CN1c1ccc2c(c1)CCCc1cnoc1-2,203 to 205
15,CCCCc1nc(Cl)c(COC)n1Cc1ccc2oc(-c3ccccc3-c3nnn[nH]3)c(Br)c2c1,213 to 215
16,CC(C)CC(C)c1cc(C(C(F)(F)F)C(F)(F)F)ccc1NC(=O)c1c(C(F)(F)F)nn(C)c1Cl (stereo not given),102 to 104
17,COC(=O)c1cn(Cc2ccc(OCc3ccccc3)cc2)cc1-c1ccccc1,97 to 98
18,CCOC(=O)c1c(O)c2cc(Cl)ccc2c(=O)n1C,110 to 111
19,CC(C)(C)OC(=O)N[C@H](Cc1ccc(Cl)c(Cl)c1)C(=O)N1CCC[C@H]1C(=O)NC1CCc2n[nH]cc2C1 (stereo not given in full),116 to 119
20,CC(CCC(O)C(C)(C)O)C1CCC2C3CC=C4CC(O)CC(O)C4(C)C3CCC12C (stereo not given),198 to 200
21,CC(C)CCN1CNC(=O)C12CCN(Cc1ccccc1)CC2,139 to 140
22,N#Cc1cccc(CSc2nnc(-c3ccn4ncnc4c3)o2)c1,196 to 197
23,CC(C)(C)OC(=O)N1CCC[C@@H](OC(=O)c2ccc(C(=O)c3ccccc3)cc2)[C@H](NC(=O)c2ccc(OC(C)(C)C)cc2)C1,145 to 148
24,CCOC(=O)c1cn2c(ccc3cc(OC)ccc32)n1,119 to 121
25,C#CCNCC1=Cc2cc(S(N)(=O)=O)sc2S(=O)(=O)N1C(C)C,133 to 135

row,Compound,melting point [°C]
1,Cc1cc(CN2C(=O)C3(COc4cc5c(cc43)OCO5)c3ccccc32)c(C)n1C(C)C (stereo not given),169 to 171
2,CC(=O)c1ccc2c(c1)C(=O)C=C(C)C2=O,126
3,COC(=O)C1CCc2cc(C(=O)c3ccccc3)c(OC)cc21 (stereo not given),126 to 128
4,NS(=O)(=O)c1cc(C(=O)O)cc([N+](=O)[O-])c1-c1ccccc1,119 to 121
5,O=C(CNC(=O)C(Cc1ccccc1)C(=O)NOCc1ccccc1)OCc1ccccc1 (stereo not given),70
6,CC(=O)Nc1ccc2c(c1)Cc1c(-c3ccccc3)n[nH]c1-2,275 to 276
7,O=c1c(-c2cccc(C(F)(F)F)c2)ccc2ccccn12,110 to 111
8,COc1cc(Nc2c(C#N)cnc3cc4cc(OCCN5CCOCC5)c(OC)cc4cc23)c(Cl)cc1C,220 to 222
9,CC(CN=C(O)C(Cl)=C(Cl)C(=O)O)Cc1ccc(C(C)(C)C)cc1 (stereo not given),64 to 65
10,O=[N+]([O-])c1ccc(-c2nnc3ccc(Cl)nn23)s1,215 to 217
11,Cc1ccc(Oc2ccc(-n3cncn3)cc2)c(O)c1,107 to 109
12,CCCCOc1ccc2c(c1)CCC(C(=O)OC)C2O (stereo not given),81 to 83
13,CONC(=O)[C@@H](Cc1ccccc1)NC(=O)OC,154 to 155
14,Nc1c(-c2cccc(Oc3ccccc3)c2)c(=O)[nH]c2cc(Cl)ccc12,196 to 197
15,O=C(NCc1cccs1)c1ccc(Cl)cc1,153 to 154
16,CC(C)(C)OC(=O)N1CCc2c(n(CCOc3ccccc3)c3c(Cl)ccc(Cl)c23)CC1,132 to 133
17,O=C(NC(=NCCSCc1cccs1)NCCCc1c[nH]cn1)c1ccccc1,128 to 129
18,COC1=CC(=O)C(OC)=C(CCCCCC2=C(OC)C(=O)C(Cl)=C(OC)C2=O)C1=O,44.8 to 46
19,Cc1cc(N)n(-c2ccc(Cl)nn2)n1,148 to 150
20,CCOc1ccc(C2=NN(c3ccc(C(=O)N4CCSCC4)cc3)C(=O)[C@H]3CC=CC[C@@H]23)cc1OCC (relative stereo),104 to 106
21,CC(C)C1(n2cccn2)CN(C(=O)O)N=C1c1ccc(F)cc1 (stereo not given),125
22,CCOC(=O)CSc1nnsc1-c1ccc(C(C)(C)C)cc1,62.5 to 63.5
23,CCN(CCCN1c2ccccc2N(C)C(=O)c2ccc(C)nc21)C(C)C,104 to 105
24,CC(C(=O)O)c1ccc(-c2ccc(F)cc2)c(F)c1 (stereo not given),118 to 119
25,Cc1ccc(S(=O)(=O)NC(=O)NCCCCCCNC(=O)NS(=O)(=O)c2ccc(C)o2)o1,115 to 116
